Experimental data published in US10238747B2 (priority 2010, dated 2019).
Several values for one entry are separate records, joined by “and”; a condition that tells them apart may be missing. Equal values may be shown once.

How the values were obtained:
CD4 = CD4 (Homo sapiens, UniProt P01730); conditions: T cell co-stimulator molecule; cited from earlier work
[1] = 2-8° C.
BALB/c and C57BL6 mice = conditions: mouse, in vivo
Dendritic Cells = format: cell-based, Balb/c mice
CIA model of RA = conditions: mouse, in vivo; cited from earlier work

(amino)-DGQEEKAGVVSTGLIGGG-(amide) (H-DGQEEKAGVVSTGLIGGG-NH2) [CEL-1000]
binding to CD4 (CD4): shown to bind to CD4
stability of formulation (time extremely stable) [1]: over 2 years

DLLKNGERIEKVEGGGGLFGAIAGFIEGG [J-HA2 core 1]
primary response: antibody production (day 24 or 38) or cytokine responses (day 3, 10 and 24) (BALB/c and C57BL6 mice): very little response

DLLKNGERIEKVEGGGLKSTQNAIDEITNKVN [J-HA2 core 2]
primary response: antibody production (day 24 or 38) or cytokine responses (day 3, 10 and 24) (BALB/c and C57BL6 mice): very little response

DLLKNGERIEKVEGGGNDATYQRTRALVRTG [J-NP]
serum IFN-y, secondary response (FIG. 2) (BALB/c and C57BL6 mice): sustained levels
serum IFN-γ response, normalized to adjuvant control (FIG. 1) (BALB/c and C57BL6 mice): higher amounts
serum IL-10, secondary response (FIG. 2) (BALB/c and C57BL6 mice): sustained levels
serum IL-12 p40p70, secondary response (FIG. 2) (BALB/c and C57BL6 mice): sustained levels
serum IL-12p40 response, normalized to adjuvant control (FIG. 1) (BALB/c and C57BL6 mice): higher for C57BL6 mice
serum IL-12p70, secondary response (FIG. 2) (BALB/c and C57BL6 mice): sustained levels
serum MCP-1 response, normalized to adjuvant control (FIG. 1) (BALB/c and C57BL6 mice): higher amounts

DLLKNGERIEKVEGGGSLLTEVETPIRNEWGCRCNDSSD [J-M2e]
serum IFN-y, secondary response (FIG. 2) (BALB/c and C57BL6 mice): increase
serum IFN-γ response, normalized to adjuvant control (FIG. 1) (BALB/c and C57BL6 mice): higher amounts
serum IL-10, secondary response (FIG. 2) (BALB/c and C57BL6 mice): increase
serum IL-12 p40p70, secondary response (FIG. 2) (BALB/c and C57BL6 mice): increase
serum IL-12p40 response, normalized to adjuvant control (FIG. 1) (BALB/c and C57BL6 mice): higher for C57BL6 mice
serum IL-12p70, secondary response (FIG. 2) (BALB/c and C57BL6 mice): increase
serum MCP-1 response, normalized to adjuvant control (FIG. 1) (BALB/c and C57BL6 mice): higher amounts

DLLKNGERIEKVEGGGTGGKPGIAGFKGEQGPKGEP [CEL-2000]
IL-12p70 Conc., R&D Systems (IL-12p70), Avg (Dendritic Cells): 67.9 pg/mL and 35.4 pg/mL and 58.2 pg/mL
disease suppression (CIA model of RA): suppress disease over a 90 day period
efficacy compared with Enbrel (CIA model of RA): more effective than Enbrel
safety and tolerability (CIA model of RA): safe and well-tolerated
serum IL-1 change (CIA model of RA): reduced
serum IL-10 change (CIA model of RA): increased
serum IL-12p40 change (CIA model of RA): decrease
serum IL-12p70 change (CIA model of RA): increased
serum MCP-1 change (CIA model of RA): reduced
serum TNF-α change (CIA model of RA): reduced

DLLKNGERIEKVEGGGYSVHQRIDVKDTKEALEKIEEEQNKSKKKA [JH]
TNF-a Conc., R&D Systems TNF-a, Avg (Dendritic Cells): 905.7 pg/mL and 685.0 pg/mL and 830.9 pg/mL
TNF-a Conc., RayBio TNF-a, Avg (Dendritic Cells): 29.6 pg/mL

lipopolysaccharide [LPS]
IL-12p70 Conc., R&D Systems (IL-12p70), Avg (Dendritic Cells): 57.0 pg/mL and 78.5 pg/mL and 62.5 pg/mL
TNF-a Conc., R&D Systems TNF-a, Avg (Dendritic Cells): 5229.9 pg/mL and 3313.2 pg/mL and 3083.0 pg/mL
TNF-a Conc., RayBio TNF-a, Avg (Dendritic Cells): 3206.0 pg/mL and 2142.3 pg/mL and 2028.6 pg/mL
